The record followed here is patent publication US7659404B2, “Broad spectrum 2-(substituted-amino)-benzothiazole sulfonamide HIV protease inhibitors” (Tibotec Pharmaceuticals Ltd., priority 2001, dated 2010).

One experiment relates to wild type virus (IIIB). The experiment can be described thus: HIV-AVE-MT4-MTT cellular assay, wild type virus (IIIB). Type of experiment: cell-based. Conditions: MT4 cells, MTT; for HIV-AVE-MT4-MTT-IIIB-2-002 pEC50: wild type virus (IIIB); for EC50: Human immunodeficiency virus 1, IIIB, MT4, wild type virus (IIIB), read-out: HIV-AVE-MT4-MTT-IIIB-2-002 pEC50 (converted). As for the experimental part: (§1) HIV- or mock-infected MT4 cells were incubated for five days in the presence of various concentrations of the inhibitor. At the end of the incubation period, all HIV-infected cells have been killed by the replicating virus in the control cultures in the absence of any inhibitor. Cell viability is measured by measuring the concentration of MTT, a yellow, water soluble tetrazolium dye that is converted to a purple, water insoluble formazan in the mitochondria of living cells only. Upon solubilization of the resulting formazan crystals with isopropanol, the absorbance of the solution is monitored at 540 nm. The values correlate directly to the number of living cells remaining in the culture at the completion of the five day incubation. The inhibitory activity of the compound was monitored on the virus-infected cells and was expressed as EC50 and EC90. These values represent the amount of the compound required to protect 50% and 90%, respectively, of the cells from the cytopathogenic effect of the virus. The toxicity of the compound was measured on the mock-infected cells and was expressed as CC50, which represents the concentration of compound required to inhibit the growth of the cells by 50%. The selectivity index (SI) (ratio CC50/EC50) is an indication of the selectivity of the anti-HIV activity of the inhibitor.
A general note: Tetrazolium dyes change colour on reduction, which living cells bring about.

Another experiment deals with virus strain S (R13080). The experiment can be described thus: microbe, parasite or virus in culture. The class given is cell-based, HIV. Conditions: Human immunodeficiency virus 1, MT4, read-out: HIV-AVE-MT4-MTT-R13080-2-002 pEC50, virus strain S (R13080), MT4 cells, MTT (converted). As to the method:
as §1, with “At the end of the incubation period, all HIV-infected cells have been killed by the replicating virus in the control cultures in the absence of any inhibitor.” left out
(§2) Because of the increasing emergence of drug resistant HIV strains, the present compounds were tested for their potency against clinically isolated HIV strains harboring several mutations.
(§3) As a measure of the broad spectrum activity of the present compounds, the fold resistance (FR) defined as FR=EC50(mutant strain)/EC50(HIV-1 strain LAI).

For another experiment, the system named is virus strain F (R13025). Description: microbe, parasite or virus in culture. Type of experiment: cell-based, HIV. Conditions: for EC50: Human immunodeficiency virus 1, MT4, read-out: HIV-AVE-MT4-MTT-R13025-2-002 pEC50, virus strain F (R13025), MT4 cells, MTT (converted); for HIV-AVE-MT4-MTT-R13025-2-002 pEC50: virus strain F (R13025), MT4 cells. As for the experimental part: as §1, with “At the end of the incubation period, all HIV-infected cells have been killed by the replicating virus in the control cultures in the absence of any inhibitor.” left out
as §2, §3

For `CC(C)CN(C[C@@H](O)[C@H](Cc1ccccc1)NC(=O)[C@@H](NC(=O)CNCc1cccc(F)c1)C(C)(C)C)S(=O)(=O)c1ccc2nc(NCCN3CCCC3)sc2c1.O=C(O)C(F)(F)F.O=C(O)C(F)(F)F` [Compound 85, N′-[(3-fluorophenyl)methyl]glycyl-N-[(1S,2R)-2-hydroxy-3-[(2-methylpropyl)[[2-[2-(pyrrolidin-1-yl)ethylamino]benzothiazol-6-yl]sulfonyl]amino]-1-(phenylmethyl)propyl]-3-methyl-L-Valinamide, bis-trifluoroacetate], in the experiment on wild type virus (IIIB), the “HIV-AVE-MT4-MTT-IIIB-2-002 pEC50” value was determined as 7.24.
Regarding `CC(C)CN(C[C@@H](O)[C@H](Cc1ccccc1)NC(=O)O[C@H]1CCOC1)S(=O)(=O)c1ccc2nc(NC(=O)CN3CCCC3)sc2c1` [Compound 100], the EC50 in the experiment with virus strain S (R13080) is 70.8 nM; in the experiment with virus strain F (R13025), 43.7 nM; with wild type virus (IIIB) it was 1.32 nM.
On to `CC(C)CN(C[C@@H](O)[C@H](Cc1ccccc1)NC(=O)O[C@@H]1COC2OCCNC21)S(=O)(=O)c1ccc2nc(NCCN3CCCC3)sc2c1` (stereo partly drawn) [Compound 101], for which the EC50 with wild type virus (IIIB) was 240 nM.
For `CC(=O)Nc1nc2ccc(S(=O)(=O)N(CC(C)C)C[C@@H](O)[C@H](Cc3ccccc3)NC(=O)COc3ccon3)cc2s1` [Compound 102], the results for the EC50 with virus strain S (R13080), in the experiment with virus strain F (R13025) and with wild type virus (IIIB) were 955 nM, 132 nM and 12 nM, respectively.
For `CC(C)CN(C[C@@H](O)[C@H](Cc1ccccc1)NC(=O)O[C@H]1CO[C@H]2OCC[C@H]21)S(=O)(=O)c1ccc2nc(N(C)CCCN(C)C)sc2c1` [Compound 103], the EC50 with virus strain S (R13080) was 525 nM; in the experiment with virus strain F (R13025) it was 174 nM; in the experiment on wild type virus (IIIB) it was 20 nM.
As to `CC(=O)Nc1nc2ccc(S(=O)(=O)N(CC(C)C)C[C@@H](O)[C@H](Cc3ccccc3)NC(=O)COc3c(C)cc([N+](=O)[O-])cc3C)cc2s1` [Compound 104], the EC50 in the experiment on wild type virus (IIIB) is 66.1 nM.
Take `CC(=O)Nc1nc2ccc(S(=O)(=O)N(CC(C)C)C[C@@H](O)[C@H](Cc3ccccc3)NC(=O)COc3c(C)cc(C)cc3C)cc2s1` [Compound 105]: the EC50 was 479 nM in the experiment on virus strain S (R13080), 56.2 nM in the experiment with virus strain F (R13025) and 46.8 nM with wild type virus (IIIB).
As to `CC(C)CN(C[C@@H](O)[C@H](Cc1ccccc1)NC(=O)O[C@H]1CO[C@H]2OCC[C@H]21)S(=O)(=O)c1ccc2nc(N3CCNC3=O)sc2c1` [Compound 106], the EC50 was 219 nM with virus strain S (R13080), 55 nM in the experiment with virus strain F (R13025) and 11 nM in the experiment with wild type virus (IIIB).
Consider `CC(C)CN(C[C@@H](O)[C@H](Cc1ccccc1)NC(=O)O[C@H]1CO[C@H]2OCC[C@H]21)S(=O)(=O)c1ccc2nc(N3CCN(C)CC3)sc2c1` [Compound 107], for which the figures for the EC50 with virus strain S (R13080), in the experiment on virus strain F (R13025) and with wild type virus (IIIB) were 661 nM, 158 nM and 2 nM, respectively.
The matching figures for `CC(C)CN(C[C@@H](O)[C@H](Cc1ccccc1)NC(=O)O[C@H]1CO[C@H]2OCC[C@H]21)S(=O)(=O)c1ccc2nc(N(C)CCCN3CCCC3)sc2c1` [Compound 108]: 813 nM, 288 nM and 24.5 nM.
As for `Cc1cccc(C)c1OCC(=O)N[C@@H](Cc1ccccc1)[C@H](O)CN(CC(C)C)S(=O)(=O)c1ccc2nc(N(C)CCCN(C)C)sc2c1` [Compound 109], the EC50 was 4170 nM in the experiment on virus strain F (R13025) and 2090 nM in the experiment on wild type virus (IIIB).
Turning to `CC(C)CN(C[C@@H](O)[C@H](Cc1ccccc1)NC(=O)O[C@H]1CO[C@H]2OCC[C@H]21)S(=O)(=O)c1ccc2nc(N(C)CCN3CCCC3)sc2c1` [Compound 110], the EC50 in the experiment with virus strain S (R13080) is 1550 nM; in the experiment on virus strain F (R13025), 676 nM; with wild type virus (IIIB) it was 8.13 nM.
The matching figures for `Cc1cccc(C)c1OCC(=O)N[C@@H](Cc1ccccc1)[C@H](O)CN(CC(C)C)S(=O)(=O)c1ccc2nc(NC(=O)c3cccnc3)sc2c1` [Compound 111]: 661 nM, 234 nM and 24.5 nM.
Regarding `Cc1cccc(C)c1OCC(=O)N[C@@H](Cc1ccccc1)[C@H](O)CN(CC(C)C)S(=O)(=O)c1ccc2nc(NC(=O)c3ccccn3)sc2c1` [Compound 112], in the experiment on virus strain S (R13080), the EC50 was 151 nM. The “HIV-AVE-MT4-MTT-R13025-2-002 pEC50” value in the experiment on virus strain F (R13025) came to 6.91. Also, in the experiment on wild type virus (IIIB), the “HIV-AVE-MT4-MTT-IIIB-2-002 pEC50” value was 8.
Regarding `Cc1cccc(C)c1OCC(=O)N[C@@H](Cc1ccccc1)[C@H](O)CN(CC(C)C)S(=O)(=O)c1ccc2nc(NC(=O)c3cc(O)cc(O)c3)sc2c1` [Compound 113], the EC50 in the experiment with virus strain S (R13080) is 43.7 nM; with virus strain F (R13025), 24.5 nM; in the experiment with wild type virus (IIIB) it was 5.13 nM.
As for `CC(C)CN(C[C@@H](O)[C@H](Cc1ccccc1)NC(=O)OC(C)(C)C)S(=O)(=O)c1ccc2nc(NCc3ccccn3)sc2c1` [Compound 118], the EC50 in the experiment with wild type virus (IIIB) is 302 nM.
With `CC(C)CN(C[C@@H](O)[C@H](Cc1ccccc1)NC(=O)OC(C)(C)C)S(=O)(=O)c1ccc2nc(NCc3ccccn3)sc2c1` [Compound 119], the “HIV-AVE-MT4-MTT-IIIB-2-002 pEC50” value in the experiment on wild type virus (IIIB) was 6.48.
Consider `CC(C)CN(C[C@@H](O)[C@H](Cc1ccccc1)NC(=O)OC(C)(C)C)S(=O)(=O)c1ccc2nc(NCCc3ccccn3)sc2c1` [Compound 120], for which, in the experiment on wild type virus (IIIB), the EC50 is 316 nM.
On the same count and under the same terms, then `CC(C)CN(C[C@@H](O)[C@H](Cc1ccccc1)NC(=O)OC(C)(C)C)S(=O)(=O)c1ccc2nc(N3CCOCC3)sc2c1` [Compound 122], with 1200 nM; and `CC(C)CN(C[C@@H](O)[C@H](Cc1ccccc1)NC(=O)OC(C)(C)C)S(=O)(=O)c1ccc2nc(N(C)CCN3CCCC3)sc2c1` [Compound 123], with 1580 nM; and `CC(C)CN(C[C@@H](O)[C@H](Cc1ccccc1)NC(=O)OC(C)(C)C)S(=O)(=O)c1ccc2nc(N(C)CCCN3CCCC3)sc2c1` [Compound 124], with 2000 nM.
Still for that read-out and setting: then `Cc1cccc(C)c1OCC(=O)N[C@@H](Cc1ccccc1)[C@H](O)CN(CC(C)C)S(=O)(=O)c1ccc2nc(NCc3ccccn3)sc2c1` [Compound 129], with 63.1 nM; and `Cc1cccc(C)c1OCC(=O)N[C@@H](Cc1ccccc1)[C@H](O)CN(CC(C)C)S(=O)(=O)c1ccc2nc(NCc3cccnc3)sc2c1` [Compound 130], with 58.9 nM; and `Cc1cccc(C)c1OCC(=O)N[C@@H](Cc1ccccc1)[C@H](O)CN(CC(C)C)S(=O)(=O)c1ccc2nc(NCCc3ccccn3)sc2c1` [Compound 132], with 64.6 nM.
As to `Cc1cccc(C)c1OCC(=O)N[C@@H](Cc1ccccc1)[C@H](O)CN(CC(C)C)S(=O)(=O)c1ccc2nc(NCC3CCCO3)sc2c1` (stereo partly drawn) [Compound 134], the EC50 in the experiment on wild type virus (IIIB) was 61.7 nM.
The same measure, in the same setting: in the case of `COC(=O)CCNc1nc2ccc(S(=O)(=O)N(CC(C)C)C[C@@H](O)[C@H](Cc3ccccc3)NC(=O)COc3c(C)cccc3C)cc2s1` [Compound 135] it was 66.1 nM; in that of `Cc1cccc(C)c1OCC(=O)N[C@@H](Cc1ccccc1)[C@H](O)CN(CC(C)C)S(=O)(=O)c1ccc2nc(N3CCOCC3)sc2c1` [Compound 136], 724 nM; in that of `Cc1cccc(C)c1OCC(=O)N[C@@H](Cc1ccccc1)[C@H](O)CN(CC(C)C)S(=O)(=O)c1ccc2nc(N(C)CCN3CCOCC3)sc2c1` [Compound 137], 1700 nM.
On the same count and under the same terms, then `Cc1cccc(C)c1OCC(=O)N[C@@H](Cc1ccccc1)[C@H](O)CN(CC(C)C)S(=O)(=O)c1ccc2nc(N(C)CCCN3CCCC3)sc2c1` [Compound 138], with 1450 nM.
For `Cc1cccc(C)c1OCC(=O)N[C@@H](Cc1ccccc1)[C@H](O)CN(CC(C)C)S(=O)(=O)c1ccc2nc(NC(=O)c3ccccn3)sc2c1` [Compound 140], the “HIV-AVE-MT4-MTT-R13025-2-002 pEC50” value in the experiment on virus strain F (R13025) came to 8.12. Also, the “HIV-AVE-MT4-MTT-IIIB-2-002 pEC50” value in the experiment on wild type virus (IIIB) is listed as 8.34.
As for `CC(C)CN(C[C@@H](O)[C@H](Cc1ccccc1)NC(=O)OC(C)(C)C)S(=O)(=O)c1ccc2nc(N3CCC[C@@H]3C(=O)O)sc2c1` [Compound 142], the EC50 in the experiment with wild type virus (IIIB) was 5620 nM.
For the molecule `Cc1cccc(C)c1OCC(=O)N[C@@H](Cc1ccccc1)[C@@H](CN(CC(C)C)S(=O)(=O)c1ccc2nc(NC(=O)c3ccccc3)sc2c1)OC(=O)c1ccncc1` [Compound 147], the EC50 in the experiment on wild type virus (IIIB) was 339 nM.
As to `CC(C)CN(C[C@@H](O)[C@H](Cc1ccccc1)NC(=O)OCc1cncs1)S(=O)(=O)c1ccc2nc(NCCN(C)C(=O)OC(C)(C)C)sc2c1` [Compound 149], in the experiment with wild type virus (IIIB), the EC50 was 51.3 nM.
